# Where “and” joins values, the source holds several entries; their conditions need not be identical. Equal values may be shown once. Where a name gives a salt, the structure may show the parent alone. Square brackets hold non-standard residues; d marks the D form. Peptide text beside a SMILES is read from it. * marks the point of attachment. dPhe(4-NHCONH2) = NC(=O)Nc1ccc(C[C@@H](N)C(=O)O)cc1; Dihydroorotyl(S) = O=C1C[C@@H](C(=O)*)NC(=O)N1; dPhe(4-Cl) = N[C@H](Cc1ccc(Cl)cc1)C(=O)O; Phe(4-NH2) = Nc1ccc(C[C@H](N)C(=O)O)cc1; d2Nal = N[C@H](Cc1ccc2ccccc2c1)C(=O)O; Lys(iPr) = CC(C)NCCCC[C@H](N)C(=O)O; d3Pal = N[C@H](Cc1cccnc1)C(=O)O
# Assays:
# in vitro = conditions: chlorocebus sabaeus
# SARS-CoV-2 = test: microbe, parasite or virus in culture; assay type: functional, organism-based, Chlorocebus sabaeus, Vero C1008
# [1] = VERO-E6 cells (Vero C1008), uninfected, CC50
# [2] = Severe acute respiratory syndrome coronavirus 2, Vero C1008, 48 h
SMILES,CC50 at 48 h (in vitro; [1]) [µM],IC50 (SARS-CoV-2; [2]) [µM],"CC50 at 48 h (in vitro; vero c1008, CC50) [µM]",IC50 (SARS-CoV-2; vero c1008)
CC(=O)N[C@H](Cc1ccc2ccccc2c1)C(=O)N[C@H](Cc1ccc(Cl)cc1)C(=O)N[C@H](Cc1cccnc1)C(=O)N[C@@H](CO)C(=O)N[C@@H](Cc1ccc(NC(=O)[C@@H]2CC(=O)NC(=O)N2)cc1)C(=O)N[C@H](Cc1ccc(NC(N)=O)cc1)C(=O)N[C@@H](CC(C)C)C(=O)N[C@@H](CCCCNC(C)C)C(=O)N1CCC[C@H]1C(=O)N[C@H](C)C(N)=O [DEGARELIX] (Ac-[d2Nal][dPhe(4-Cl)][d3Pal]S[Phe(4-NH2)](Dihydroorotyl(S))[dPhe(4-NHCONH2)]L[Lys(iPr)]P[dA]-NH2),> 33,20.7,–,–
c1ccc(-c2ccc(CNc3nc(-c4ccccn4)nnc3-c3ccccc3)cc2)cc1,0.02,31.9,–,–
Nc1c(C(=O)NCc2ccco2)c2nc3ccccc3nc2n1CCN1CCCCC1,> 33,31.2,–,–
Cc1ccc(Oc2nc3cc(-c4ccc(-c5ccccc5)cc4)c(Cl)cc3[nH]2)cc1C(=O)O,0.03,> 33,–,–
CC(=O)[C@]1(N)Cc2c(O)c3c(c(O)c2[C@@H](O[C@H]2C[C@H](O)[C@H](O)CO2)C1)C(=O)c1ccccc1C3=O [AMRUBICIN],> 33,0.33,–,–
CN1CCN(C2CCN(C(=O)Nc3cc(Oc4ccc(NC(=O)C5(C(=O)Nc6ccc(F)cc6)CC5)c(F)c4)ccn3)CC2)CC1 [GOLVATINIB],> 33,5.89,–,–
C[C@H]1Cc2c([nH]c3cc(Cl)c(F)cc23)[C@@]2(N1)C(=O)Nc1ccc(Cl)cc12 [CIPARGAMIN],> 33,> 33,–,–
CCN1CCN(Cc2ccc(-c3cc4c(N[C@H](C)c5ccccc5)ncnc4[nH]3)cc2)CC1 [AEE-788],> 33,3.94,–,–
C=CC(=O)N1CCC(Oc2cc3c(Nc4ccc(Cl)c(Cl)c4F)ncnc3cc2OC)CC1 [POZIOTINIB],11.5,> 33,–,–
Nc1cc2c3ccccc3ccc2c2ccccc12,> 33,11.6,–,–
CC(C)c1cccc2c(-c3ccccc3)cc(-c3ccc(-c4ccc(C(=O)O)cc4)[nH]3)nc12,> 33,> 33,–,–
O=C(Nc1ccc([N+](=O)[O-])cc1Cl)c1cc(Cl)ccc1O [NICLOSAMIDE],–,–,> 33,4.1 µM and > 33 µM
C/C(=C\c1ccc(C(=O)O)cc1)c1ccc2c(c1)C(C)(C)CCC2(C)C,4.07,> 33,–,–
COc1cc(/C=C2\SC(=O)NC2=O)ccc1Oc1ccc(C#N)cc1C(F)(F)F,3.33,> 33,–,–
COC(=O)c1ccccc1-c1c2ccc(=N)cc-2oc2cc(N)ccc12 [RHODAMINE123],> 33,0.8,–,–
O=C(c1ccc(OCCN2CCCCC2)cc1)c1c(-c2ccc(O)cc2)sc2cc(O)ccc12 [RALOXIFENE HYDROCHLORIDE],> 33,15.4,–,–
CC1=NN(c2ccc(C)c(C)c2)C(=O)/C1=N\Nc1cccc(-c2cccc(C(=O)O)c2)c1O [ELTROMBOPAG],3.26,> 33,–,–
C/C=C/C[C@@H](C)C(=O)[C@H]1C(=O)N[C@@H](C(C)C)C(=O)N(C)CC(=O)N(C)[C@@H](CC(C)C)C(=O)N[C@@H](C(C)C)C(=O)N(C)[C@@H](CC(C)C)C(=O)N[C@@H](C)C(=O)N[C@H](C)C(=O)N(C)[C@@H](CC(C)C)C(=O)N(C)[C@@H](CC(C)C)C(=O)N(C)[C@@H](C(C)C)C(=O)N1C [VALSPODAR],13.4,> 33,–,–
Cc1cc([N+](=O)[O-])ccc1NS(=O)(=O)c1cc(Cl)ccc1Cl,16.6,> 33,–,–
C[C@@H](OC[C@@]1(c2ccccc2)CC[C@]2(CCC(=O)N2)CN1)c1cc(C(F)(F)F)cc(C(F)(F)F)c1 [ROLAPITANT],> 33,19.6,–,–
CC(C)C(=O)OCC(=O)[C@@]12O[C@H](C3CCCCC3)O[C@@H]1C[C@H]1[C@@H]3CCC4=CC(=O)C=C[C@]4(C)[C@H]3[C@@H](O)C[C@@]12C [CICLESONIDE],–,> 33,–,–
O=C1C(=Cc2cccnc2)C(=O)c2ccccc21,–,> 33,–,–

# Reference: ChEMBL document CHEMBL4495565, “Cytopathic SARS-Cov2 screening on VERO-E6 cells in a large repurposing effort” (2020)
